Measured values from PubChem BioAssay AID1963451 (Molecular Pharmacology Branch, DTP, NCI, 2024).
pIC50: −log10 of the molar value. One block for each compound: values may come before it.

Tested on: 521955-158-R6-J3-PDC complex spheroid growth, % test/control
Experiment: Anticancer human tumor 521955-158-R6-J3-PDC patient-derived pancreatic carcinoma cell line growth inhibition [Asc]
Settings: for pIC50: curve of first compound; for viability, T/C: stronger effect = lower value
Procedure: Multicellular complex tumor spheroid response to apoptosis pathway targeting inhibitors Alrizomadlin, Pelcitoclax, and Dasminapant in combination with a variety of drugs and investigational agents in selected tumor cell lines
The MDM2 inhibitor alrizomadlin, the Bcl-2/Bcl-xL inhibitor pelcitoclax, and the IAPs inhibitor dasminapant were evaluated both individually and in combination with standard of care and investigational anticancer small molecules within a complex spheroid model of solid tumors. . Complex spheroids include a stromal component modeled by human endothelial cells (HUVEC) and fibroblasts modeled by human mesenchymal stem cells (MSCs). The concentration ranges selected for each drug and investigational agent were based upon clinically achievable concentrations if the clinical Cmax of the agent was known.
Compounds. The drugs and investigational agents: alrizomadlin (APG-115; NSC831270), pelcitoclax (APG-1252; NSC835773), dasminapant (APG-1387;NSC834197), TAK-243 (NSC785004), copanlisib (NSC809693), olaparib (NSC753686), talazoparib (NSC767125), cobimetinib (NSC 768068), eltanexor (KPT-8602, NSC 794443), abemaciclib (NSC 768073), sotorasib (NSC818433), adagrasib (NSC 831453), MRTX-1133 (NSC 836407), Iadademestat (ORY1001, NSC 806812), and RMC-4630 (NSC839698), were obtained from the NCI Developmental Therapeutics Program Chemical Repository. The FDA-approved anticancer drug set is available from the Developmental Therapeutics Program at https://dtp.cancer.gov/organization/dscb/obtaining/available plates.htm. […] The stock solutions were prepared in dimethyl sulfoxide (DMSO, Sigma-Aldrich, St. Louis, MO, cat. D2650) at 800-fold the tested concentration and stored at -70 degrees C prior to their use. All drugs and investigational agents were tested over a range starting from a high concentration at or near the clinical Cmax and decreasing in half-log increments. If the clinical Cmax for an agent had not been determined, the highest concentration tested was 10 microM.
The patient-derived cancer (PDC) cell lines include five colon adenocarcinomas: 186277-243-T-J2-PDC, 616215-338-R-J1-PDC, 439559-082-T-J2-PDC, 463943-066-T-J2-PDC, and 519858-162-T-J1-PDC; three pancreatic carcinomas: 323965-272-R-J2-PDC, 521955-158-R6-J3-PDC, and 521955-158-R2-J5-PDC; two uterine sarcomas: 327498-152-R-J2-PDC and 993429-296-R-J1-PDC; two rhabdomyosarcomas: 755483-174-R-J1-PDC and 772245-204-R-J1-PDC; two soft tissue sarcomas: 126254-015-R-J1-PDC and 494315-158-R-J1-PDC; two malignant fibrous histiocytomas: 317291-083-R-J1-PDC and 596521-263-R-J1-PDC; two breast carcinomas: 171881-019-R-J1-PDC and 885512-296-R-J2-PDC; and one ovarian carcinoma: 6556581-035-R-J-PDC were obtained from the NCI PDMR, (https://pdmr.cancer.gov). The established cell lines HSSY-2 synovial sarcoma (RRID:CVCL 8719), SYO-1 synovial sarcoma (RRID:CVCL_7146), MPNST malignant peripheral neural sheath tumor were obtained from the Sloan Kettering Institute. The following established cell lines were purchased from the American Type Culture Collection (ATCC, Manassas, VA), Sor the received from the NCI repository:, PANC-1 pancreatic carcinoma (CRL-1469, RRID:CVCL_0480), OVCAR-5 ovarian carcinoma (RRID:CVCL_1628), OVCAR-8 ovarian carcinoma (RRID:CVCL_1629), , MCF-7 breast carcinoma (CRL-12584, RRID:CVCL_0031), MDA-MB-231 breast carcinoma (CRL-12532, RRID:CVCL_0062), NCI-H1876 small cell lung carcinoma (CRL-5902, RRID:CVCL_1503), NCI-H510A small cell lung carcinoma (HTB-184, RRID:CVCL_1565), NCI-H1417 (CRL-5869, RRID:CVCL_1469), and NCI-H196 small cell lung carcinoma (CRL-5823, RRID:CVCL_1509). Dr. Peter Houghton (Greehey Children's Cancer Research Institute, University of Texas Health Science Center, San Antonio, TX) provided Rh-18 rhabdomyosarcoma (RRID:CVCL_1659). Pooled donor human umbilical vein endothelial cells (HUVEC, Lonza, cat. CC-2519) and human mesenchymal stem cells (hMSC, Lonza, cat. PT-2501) were purchased from Lonza (Walkersville, MD).
Cell Culture. […]

[1] = second compound 0.00949 µM, first compound 0.00316 µM
[2] = second compound 0.00949 µM, first compound 0.01 µM
[3] = second compound 0.00949 µM, first compound 0.0316 µM
[4] = second compound 0.00949 µM, first compound 0.1 µM
[5] = second compound 0.00949 µM, first compound 0.316 µM
[6] = second compound 0.00949 µM, first compound 1 µM
[7] = second compound 0.03 µM, first compound 0.00316 µM
[8] = second compound 0.03 µM, first compound 0.01 µM
[9] = second compound 0.03 µM, first compound 0.0316 µM
[10] = second compound 0.03 µM, first compound 0.1 µM
[11] = second compound 0.03 µM, first compound 0.316 µM
[12] = second compound 0.03 µM, first compound 1 µM
[13] = second compound 0.0949 µM, first compound 0.00316 µM
[14] = second compound 0.0949 µM, first compound 0.01 µM
[15] = second compound 0.0949 µM, first compound 0.0316 µM
[16] = second compound 0.0949 µM, first compound 0.1 µM
[17] = second compound 0.0949 µM, first compound 0.316 µM
[18] = second compound 0.0949 µM, first compound 1 µM
[19] = second compound 0.3 µM, first compound 0.00316 µM
[20] = second compound 0.3 µM, first compound 0.01 µM
[21] = second compound 0.3 µM, first compound 0.0316 µM
[22] = second compound 0.3 µM, first compound 0.1 µM
[23] = second compound 0.3 µM, first compound 0.316 µM
[24] = second compound 0.3 µM, first compound 1 µM
[25] = second compound 0.949 µM, first compound 0.00316 µM
[26] = second compound 0.949 µM, first compound 0.01 µM
[27] = second compound 0.949 µM, first compound 0.0316 µM
[28] = second compound 0.949 µM, first compound 0.1 µM
[29] = second compound 0.949 µM, first compound 0.316 µM
[30] = second compound 0.949 µM, first compound 1 µM
[31] = second compound 3 µM, first compound 0.00316 µM
[32] = second compound 3 µM, first compound 0.01 µM
[33] = second compound 3 µM, first compound 0.0316 µM
[34] = second compound 3 µM, first compound 0.1 µM
[35] = second compound 3 µM, first compound 0.316 µM
[36] = second compound 3 µM, first compound 1 µM
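Also: spheroids exposed to compounds for 7 days.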
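For viability, T/C in this document: 100% = DMSO vehicle control wells.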

pIC50 (second compound 0.00949 µM): < 6.00 | pIC50 (second compound 0.03 µM): < 6.00 | pIC50 (second compound 0.0949 µM): < 6.00 | pIC50 (second compound 0.3 µM): < 6.00 | pIC50 (second compound 0.949 µM): < 6.00 | pIC50 (second compound 3 µM): < 6.00
Structure (SMILES): CCN1CCN(Cc2ccc(Nc3ncc(F)c(-c4cc(F)c5nc(C)n(C(C)C)c5c4)n3)nc2)CC1 + CCN1C(C(=O)NC23CCC(C(=O)O)(CC2)CC3)C(c2cccc(Cl)c2F)C2(C(=O)Nc3cc(Cl)ccc32)C12CCCCC2
viability, T/C [1]: 102% | viability, T/C [2]: 90.3% | viability, T/C [3]: 79.1% | viability, T/C [4]: 101% | viability, T/C [5]: 89.1% | viability, T/C [6]: 88.6% | viability, T/C [7]: 101% | viability, T/C [8]: 104% | viability, T/C [9]: 88.5% | viability, T/C [10]: 92.2% | viability, T/C [11]: 92.9% | viability, T/C [12]: 102% | viability, T/C [13]: 112% | viability, T/C [14]: 101% | viability, T/C [15]: 97.4% | viability, T/C [16]: 95.5% | viability, T/C [17]: 91.3% | viability, T/C [18]: 106% | viability, T/C [19]: 106% | viability, T/C [20]: 112% | viability, T/C [21]: 102% | viability, T/C [22]: 87.8% | viability, T/C [23]: 93.1% | viability, T/C [24]: 90.2% | viability, T/C [25]: 108% | viability, T/C [26]: 98.5% | viability, T/C [27]: 109% | viability, T/C [28]: 93.2% | viability, T/C [29]: 93.3% | viability, T/C [30]: 102% | viability, T/C [31]: 106% | viability, T/C [32]: 101% | viability, T/C [33]: 91.5% | viability, T/C [34]: 84.8% | viability, T/C [35]: 103% | viability, T/C [36]: 93.2%

pIC50 (second compound 0.00949 µM): < 7.00 | pIC50 (second compound 0.03 µM): < 7.00 | pIC50 (second compound 0.0949 µM): < 7.00 | pIC50 (second compound 0.3 µM): < 7.00 | pIC50 (second compound 0.949 µM): < 7.00 | pIC50 (second compound 3 µM): < 7.00
Structure (SMILES): Cn1ncnc1[C@H]1c2n[nH]c(=O)c3cc(F)cc(c23)N[C@@H]1c1ccc(F)cc1 + CCN1C(C(=O)NC23CCC(C(=O)O)(CC2)CC3)C(c2cccc(Cl)c2F)C2(C(=O)Nc3cc(Cl)ccc32)C12CCCCC2
viability, T/C (second compound 0.00949 µM, first compound 0.000316 µM): 114% | viability, T/C (second compound 0.00949 µM, first compound 0.001 µM): 102% | viability, T/C [1]: 98.8% | viability, T/C [2]: 91.7% | viability, T/C [3]: 78.9% | viability, T/C [4]: 91.2% | viability, T/C (second compound 0.03 µM, first compound 0.000316 µM): 100% | viability, T/C (second compound 0.03 µM, first compound 0.001 µM): 94.1% | viability, T/C [7]: 100% | viability, T/C [8]: 99.5% | viability, T/C [9]: 97.5% | viability, T/C [10]: 94.6% | viability, T/C (second compound 0.0949 µM, first compound 0.000316 µM): 95.7% | viability, T/C (second compound 0.0949 µM, first compound 0.001 µM): 94.8% | viability, T/C [13]: 101% | viability, T/C [14]: 102% | viability, T/C [15]: 94.3% | viability, T/C [16]: 98.9% | viability, T/C (second compound 0.3 µM, first compound 0.000316 µM): 97.2% | viability, T/C (second compound 0.3 µM, first compound 0.001 µM): 97.7% | viability, T/C [19]: 99.4% | viability, T/C [20]: 80.5% | viability, T/C [21]: 98.3% | viability, T/C [22]: 102% | viability, T/C (second compound 0.949 µM, first compound 0.000316 µM): 104% | viability, T/C (second compound 0.949 µM, first compound 0.001 µM): 100% | viability, T/C [25]: 114% | viability, T/C [26]: 87.5% | viability, T/C [27]: 96.3% | viability, T/C [28]: 99.8% | viability, T/C (second compound 3 µM, first compound 0.000316 µM): 100% | viability, T/C (second compound 3 µM, first compound 0.001 µM): 90.4% | viability, T/C [31]: 108% | viability, T/C [32]: 82% | viability, T/C [33]: 98.6% | viability, T/C [34]: 99%

pIC50 (second compound 0.00949 µM): 6.25 | pIC50 (second compound 0.03 µM): 6.23 | pIC50 (second compound 0.0949 µM): 6.41 | pIC50 (second compound 0.3 µM): 6.25 | pIC50 (second compound 0.949 µM): 6.42 | pIC50 (second compound 3 µM): 6.49
Structure (SMILES): O=C(c1ccc(F)c(F)c1Nc1ccc(I)cc1F)N1CC(O)([C@@H]2CCCCN2)C1 + CCN1C(C(=O)NC23CCC(C(=O)O)(CC2)CC3)C(c2cccc(Cl)c2F)C2(C(=O)Nc3cc(Cl)ccc32)C12CCCCC2
viability, T/C [1]: 85.8% | viability, T/C [2]: 102% | viability, T/C [3]: 134% | viability, T/C [4]: 105% | viability, T/C [5]: 65.1% | viability, T/C [6]: 35% | viability, T/C [7]: 113% | viability, T/C [8]: 106% | viability, T/C [9]: 104% | viability, T/C [10]: 104% | viability, T/C [11]: 68.5% | viability, T/C [12]: 34% | viability, T/C [13]: 104% | viability, T/C [14]: 111% | viability, T/C [15]: 114% | viability, T/C [16]: 90.7% | viability, T/C [17]: 53.5% | viability, T/C [18]: 38.3% | viability, T/C [19]: 121% | viability, T/C [20]: 117% | viability, T/C [21]: 120% | viability, T/C [22]: 86.3% | viability, T/C [23]: 63.2% | viability, T/C [24]: 38.7% | viability, T/C [25]: 118% | viability, T/C [26]: 115% | viability, T/C [27]: 120% | viability, T/C [28]: 80% | viability, T/C [29]: 57.2% | viability, T/C [30]: 38.5% | viability, T/C [31]: 103% | viability, T/C [32]: 112% | viability, T/C [33]: 104% | viability, T/C [34]: 78.5% | viability, T/C [35]: 52.5% | viability, T/C [36]: 34.4%
